Measured values: patent US20140323504A1, “Pyrazolo[4,3-c]Pyridine Derivatives As Kinase Inhibitors” (Cellzome Limited, priority 2011, published 2014)
“And” between values parts separate entries of the source, which are not always exact repeats. Equal values may be shown once.

Assays:
[1] = tested on: NOD mouse model of type I diabetes; settings: cited from earlier work
GVHD = settings: Cetkovic-Cvrlje and Ucken, 2004; cited from earlier work
[2] = tested on: STAT5 phosphorylation in IL-2 stimulated YT cells; test: Cell assay with washout of compounds (pSTAT5, YT cells, MSD); type: cell-based, human
Protocol: This time course experiment allows determination as to whether the pharmacological effect of the tested compounds persists over time even after the compound is removed from the cell samples.
Human YT cells were grown as described above. Cells were harvested by centrifugation and resuspended in RPMI0.5% heat-inactivated FBS. 3×10^5 cells were seeded in 60 μl per well in a round-bottomed 96 well plate (BD-Falcon, 353077).
Test compounds were dissolved in DMSO and a 1:3 dilution series (9 steps) was prepared. To generate a dose response curve, 30 μl of fourfold concentrated compound in 4% DMSO/RPMI/0.5% FBS were added to each cell sample in the 96 well plate resulting in a final DMSO concentration of 1% DMSO. Cells were incubated for one hour in a humidified incubator (37° C., 5% CO2). After incubation cells were washed twice by centrifugation and replacement of media (RPMI/0.5% FBS), with the exception of the time 0 plate. Washed cells were incubated for 30 min, 1, 2 and 4 hours in a humidified incubator (37° C., 5% CO2) prior to stimulation with IL-2. To each well 30 μl of a fourfold concentrated IL-2 solution (Recombinant human IL-2, Peprotech 200-02; 120 nM solution in RPMI) was added and incubated for 30 minutes at room temperature. Cells were lysed by adding 30 μl of 5× lysis buffer (MSD lysis buffer) and incubated for 10 minutes at 4° C. with gentle shaking.
The effect of compounds on STATS phosphorylation was determined in lysates using the MSD MULTI-SPOT® 96 4-spot phosphor-STAT5a,b whole cell lysatc kit (MesoScale Discovery, K150IGD-3) according to the manufacturer's protocol. Data were analysed in BioAssay using the nonlinear regression for a sigmoidal dose-response with a variable slope and IC50 values were determined.

[3] = tested on: animal model of organ transplantation; settings: Changelian et al., 2003; cited from earlier work
JAK1 = biological target: T1, JAK1 (Homo sapiens, UniProt P23458); test: Kinobeads assay with antibody detection, JAK1; type: binding; settings: mixed Molt4/Ramos lysate, read-out: JAK1 inhibition value (IC50)
T1 construct: endogenous in cells; host or cells: mixed Molt4/Ramos cell lysate (1:2)
T1 sequence (P23458 whole entry): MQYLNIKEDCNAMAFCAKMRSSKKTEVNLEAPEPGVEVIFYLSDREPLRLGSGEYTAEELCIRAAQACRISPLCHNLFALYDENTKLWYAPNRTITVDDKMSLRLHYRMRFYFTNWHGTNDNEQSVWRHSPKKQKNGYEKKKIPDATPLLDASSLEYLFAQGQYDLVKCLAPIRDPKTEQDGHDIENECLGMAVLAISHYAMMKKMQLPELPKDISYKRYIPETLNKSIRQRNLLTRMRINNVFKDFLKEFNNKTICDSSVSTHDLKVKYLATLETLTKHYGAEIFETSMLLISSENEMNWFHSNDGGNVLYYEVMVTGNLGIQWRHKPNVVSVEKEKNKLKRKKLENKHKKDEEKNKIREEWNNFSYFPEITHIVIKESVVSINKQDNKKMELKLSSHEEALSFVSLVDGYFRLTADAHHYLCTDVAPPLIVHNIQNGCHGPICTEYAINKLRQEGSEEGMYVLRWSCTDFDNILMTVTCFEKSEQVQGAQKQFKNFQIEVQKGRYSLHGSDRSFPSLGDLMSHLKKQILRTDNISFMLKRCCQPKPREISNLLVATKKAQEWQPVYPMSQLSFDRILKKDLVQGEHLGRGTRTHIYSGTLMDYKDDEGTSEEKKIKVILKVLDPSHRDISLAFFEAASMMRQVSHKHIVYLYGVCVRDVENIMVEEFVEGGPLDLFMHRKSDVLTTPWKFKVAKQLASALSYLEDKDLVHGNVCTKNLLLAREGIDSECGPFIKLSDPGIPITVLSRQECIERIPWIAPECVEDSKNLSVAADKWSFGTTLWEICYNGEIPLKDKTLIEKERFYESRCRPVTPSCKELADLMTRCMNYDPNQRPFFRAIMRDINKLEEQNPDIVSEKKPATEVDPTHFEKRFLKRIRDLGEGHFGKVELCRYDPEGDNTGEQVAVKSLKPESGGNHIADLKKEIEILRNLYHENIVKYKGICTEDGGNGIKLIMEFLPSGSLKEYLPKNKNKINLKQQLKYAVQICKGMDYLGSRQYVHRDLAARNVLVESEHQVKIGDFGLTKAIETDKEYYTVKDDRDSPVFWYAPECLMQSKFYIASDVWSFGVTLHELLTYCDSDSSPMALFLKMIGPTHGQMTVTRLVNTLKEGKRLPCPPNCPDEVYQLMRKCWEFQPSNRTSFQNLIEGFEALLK
Protocol: (§1) The compounds of the present invention as described in the previous examples were tested in a Kinobeads™ assay as described for ZAP-70 (WO-A 2007/137867). Briefly, test compounds (at various concentrations) and the affinity matrix with the immobilized aminopyrido-pyrimidine ligand 24 were added to cell lysate aliquots and allowed to bind to the proteins in the lysate sample. After the incubation time the beads with captured proteins were separated from the lysate. Bound proteins were then eluted and the presence of JAK1; JAK2, JAK3 and TYK2 was detected and quantified using specific antibodies in a dot blot procedure and the Odyssey infrared detection system. Dose response curves for individual kinases were generated and IC50 values calculated. Kinobeads™ assays for ZAP-70 (WO-A 2007/137867) and for kinase selectivity profiling (WO-A 2006/134056) have been previously described.
(§2) 5×DP buffer: 250 mM Tris-HCl pH 7.4, 25% Glycerol, 7.5 mM MgCl2, 750 mM NaCl, 5 mM Na3VO4; filter the 5×DP buffer through a 0.22 μm filter and store in aliquot at −80° C. The 5×DP buffer is diluted with H2O to 1×DP buffer containing 1 mM DTT and 25 mM NaF.
(§3) Stock solutions of test compounds were prepared in DMSO. In a 96 well plate 30 μL solution of diluted test compounds at 5 mM in DMSO were prepared. Starting with this solution a 1:3 dilution series (9 steps) was prepared. For control experiments (no test compound) a buffer containing 2% DMSO was used.
(§4) Molt4 cells (ATCC catalogue number CRL-1582) and Ramos cells (ATCC catalogue number CRL-1596) were grown in 1 L Spinner flasks (Integra Biosciences, #182101) in suspension in RPMI 1640 medium (Invitrogen, #21875-034) supplemented with 10% Fetal Bovine Serum (Invitrogen) at a density between 0.15×10^6 and 1.2×10^6 cells/mL. Cells were harvested by centrifugation, washed once with 1×PBS buffer (Invitrogen, #14190-094) and cell pellets were frozen in liquid nitrogen and subsequently stored at −80° C. Cells were homogenized in a Potter S homogenizer in lysis buffer: 50 mM Tris-HCl, 0.8% NP40, 5% glycerol, 150 mM NaCl, 1.5 mM MgCl2, 25 mM NaF, 1 mM sodium vanadate, 1 mM DTT, pH 7.5. One complete EDTA-free tablet (protease inhibitor cocktail, Roche Diagnostics, 1873580) per 25 mL buffer was added. The material was dounced 10 times using a mechanized POTTER S, transferred to 50 mL falcon tubes, incubated for 30 minutes on ice and spun down for 10 minutes at 20,000 g at 4° C. (10,000 rpm in Sorvall SLA600, precooled). The supernatant was transferred to an ultracentrifuge (UZ)-polycarbonate tube (Beckmann, 355654) and spun for 1 hour at 100.000 g at 4° C. (33.500 rpm in Ti50.2, precooled). The supernatant was transferred again to a fresh 50 mL falcon tube, the protein concentration was determined by a Bradford assay (BioRad) and samples containing 50 mg of protein per aliquot were prepared. The samples were immediately used for experiments or frozen in liquid nitrogen and stored frozen at −80° C.
(§5) Cell lysate (approximately 50 mg protein per plate) was thawed in a water bath at room temperature and then stored on ice. To the thawed cell lysate 1×DP 0.8% NP40 buffer containing protease inhibitors (1 tablet for 25 mL buffer; EDTA-free protease inhibitor cocktail; Roche. Diagnostics 1873580) was added in order to reach a final protein concentration of 10 mg/mL total protein. The diluted cell lysate was stored on ice. Mixed Molt4Ramos lysate was prepared by combining one volume of Molt4 lysate and two volumes of Ramos lysate (ratio 1:2).
(§6) Plates were sealed and incubated for 3 hours in a cold room on a plate shaker (Heidolph tiramax 1000) at 750 rpm. Afterwards the plate was washed 3 times with 230 μL washing buffer (1×DP 0.4% NP40). The filter plate was placed on top of a collection plate (Greiner bio-one, PP-microplate 96 well V-shape, 65120) and the beads were then eluted with 20 μL of sample buffer (100 mM Tris, pH 7.4, 4% SDS, 0.00025% bromophenol blue, 20% glycerol, 50 mM DTT). […]

JAK2 = biological target: T2, JAK2 (Homo sapiens, UniProt O60674); test: Kinobeads assay with antibody detection, JAK2; type: binding; settings: mixed Molt4/Ramos lysate, read-out: JAK2 inhibition value (IC50)
T2 construct: endogenous in cells; host or cells: mixed Molt4/Ramos cell lysate (1:2)
T2 sequence (O60674 whole entry): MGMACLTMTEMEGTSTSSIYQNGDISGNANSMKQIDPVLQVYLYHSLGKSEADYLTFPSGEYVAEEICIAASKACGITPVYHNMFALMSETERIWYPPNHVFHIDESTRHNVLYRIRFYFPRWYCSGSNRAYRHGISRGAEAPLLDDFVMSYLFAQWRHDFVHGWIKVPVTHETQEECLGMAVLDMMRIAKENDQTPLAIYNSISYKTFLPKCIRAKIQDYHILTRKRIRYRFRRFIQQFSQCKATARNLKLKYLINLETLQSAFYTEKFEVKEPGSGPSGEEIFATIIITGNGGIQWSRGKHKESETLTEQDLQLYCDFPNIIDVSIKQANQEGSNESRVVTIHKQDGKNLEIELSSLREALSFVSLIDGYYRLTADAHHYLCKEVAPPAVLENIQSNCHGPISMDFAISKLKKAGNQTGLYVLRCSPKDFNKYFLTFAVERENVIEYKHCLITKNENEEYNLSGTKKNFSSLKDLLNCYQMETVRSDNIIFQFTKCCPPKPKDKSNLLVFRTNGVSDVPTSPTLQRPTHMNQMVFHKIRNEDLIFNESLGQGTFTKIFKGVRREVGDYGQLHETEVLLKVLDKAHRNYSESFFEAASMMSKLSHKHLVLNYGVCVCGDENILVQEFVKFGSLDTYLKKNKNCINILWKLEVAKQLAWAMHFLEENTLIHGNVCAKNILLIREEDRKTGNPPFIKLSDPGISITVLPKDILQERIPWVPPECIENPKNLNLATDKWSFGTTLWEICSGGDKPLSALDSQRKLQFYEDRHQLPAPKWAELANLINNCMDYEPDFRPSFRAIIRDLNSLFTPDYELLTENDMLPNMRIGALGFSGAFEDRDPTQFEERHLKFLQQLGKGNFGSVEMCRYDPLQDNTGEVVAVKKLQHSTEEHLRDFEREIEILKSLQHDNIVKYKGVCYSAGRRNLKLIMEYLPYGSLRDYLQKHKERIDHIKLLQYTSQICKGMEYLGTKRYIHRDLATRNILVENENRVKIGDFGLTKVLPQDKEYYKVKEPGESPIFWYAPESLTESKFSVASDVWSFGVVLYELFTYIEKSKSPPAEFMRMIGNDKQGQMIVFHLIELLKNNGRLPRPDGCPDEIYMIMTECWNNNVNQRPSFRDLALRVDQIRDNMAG
Protocol: as §1, §2, §3, §4, §5, §6

Tyk2 = biological target: T3, Tyk2 (Homo sapiens, UniProt P29597); test: Kinobeads assay with antibody detection, TYK2; type: binding; settings: mixed Molt4/Ramos lysate, read-out: Tyk2 inhibition value (IC50)
T3 construct: endogenous in cells; host or cells: mixed Molt4/Ramos cell lysate (1:2)
T3 sequence (P29597 whole entry): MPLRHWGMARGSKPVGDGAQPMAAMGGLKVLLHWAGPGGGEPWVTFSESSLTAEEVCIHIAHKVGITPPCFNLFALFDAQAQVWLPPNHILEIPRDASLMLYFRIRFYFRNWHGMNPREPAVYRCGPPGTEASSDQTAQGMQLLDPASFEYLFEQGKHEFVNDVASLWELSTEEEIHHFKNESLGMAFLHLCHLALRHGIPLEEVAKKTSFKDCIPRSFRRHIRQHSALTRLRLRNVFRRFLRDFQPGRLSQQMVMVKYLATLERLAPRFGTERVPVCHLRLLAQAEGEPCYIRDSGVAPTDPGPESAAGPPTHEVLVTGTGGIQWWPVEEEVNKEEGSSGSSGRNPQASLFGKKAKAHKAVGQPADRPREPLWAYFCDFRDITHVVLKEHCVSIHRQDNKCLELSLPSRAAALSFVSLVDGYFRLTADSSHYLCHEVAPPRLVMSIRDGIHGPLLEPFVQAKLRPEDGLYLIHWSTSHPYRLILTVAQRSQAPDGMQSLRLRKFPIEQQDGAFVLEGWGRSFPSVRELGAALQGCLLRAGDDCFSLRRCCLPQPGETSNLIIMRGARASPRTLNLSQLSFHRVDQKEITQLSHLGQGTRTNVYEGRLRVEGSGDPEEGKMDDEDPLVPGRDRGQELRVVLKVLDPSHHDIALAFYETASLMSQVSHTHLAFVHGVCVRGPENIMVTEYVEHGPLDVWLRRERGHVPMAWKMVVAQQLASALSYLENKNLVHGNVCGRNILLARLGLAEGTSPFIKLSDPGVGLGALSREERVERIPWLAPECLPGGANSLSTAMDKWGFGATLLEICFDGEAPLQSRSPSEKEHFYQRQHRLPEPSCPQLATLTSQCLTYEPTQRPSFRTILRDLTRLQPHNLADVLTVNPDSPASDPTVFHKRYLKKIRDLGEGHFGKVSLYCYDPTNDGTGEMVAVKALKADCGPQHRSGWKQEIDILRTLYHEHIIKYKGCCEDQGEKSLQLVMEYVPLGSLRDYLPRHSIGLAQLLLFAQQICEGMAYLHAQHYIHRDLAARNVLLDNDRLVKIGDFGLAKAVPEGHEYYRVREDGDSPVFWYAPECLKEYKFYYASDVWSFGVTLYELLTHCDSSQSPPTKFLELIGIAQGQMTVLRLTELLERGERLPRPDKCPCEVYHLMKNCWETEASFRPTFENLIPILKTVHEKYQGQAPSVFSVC
Protocol: as §1, §2, §3, §4, §5, §6

JAK3 = biological target: T4, JAK3 (Homo sapiens, UniProt P52333); test: Kinobeads assay with antibody detection, JAK3; type: binding; design: endogenous in cells; host or cells: mixed Molt4/Ramos cell lysate (1:2); settings: mixed Molt4/Ramos lysate, read-out: JAK3 inhibition value (IC50)
T4 sequence (P52333 1-1124): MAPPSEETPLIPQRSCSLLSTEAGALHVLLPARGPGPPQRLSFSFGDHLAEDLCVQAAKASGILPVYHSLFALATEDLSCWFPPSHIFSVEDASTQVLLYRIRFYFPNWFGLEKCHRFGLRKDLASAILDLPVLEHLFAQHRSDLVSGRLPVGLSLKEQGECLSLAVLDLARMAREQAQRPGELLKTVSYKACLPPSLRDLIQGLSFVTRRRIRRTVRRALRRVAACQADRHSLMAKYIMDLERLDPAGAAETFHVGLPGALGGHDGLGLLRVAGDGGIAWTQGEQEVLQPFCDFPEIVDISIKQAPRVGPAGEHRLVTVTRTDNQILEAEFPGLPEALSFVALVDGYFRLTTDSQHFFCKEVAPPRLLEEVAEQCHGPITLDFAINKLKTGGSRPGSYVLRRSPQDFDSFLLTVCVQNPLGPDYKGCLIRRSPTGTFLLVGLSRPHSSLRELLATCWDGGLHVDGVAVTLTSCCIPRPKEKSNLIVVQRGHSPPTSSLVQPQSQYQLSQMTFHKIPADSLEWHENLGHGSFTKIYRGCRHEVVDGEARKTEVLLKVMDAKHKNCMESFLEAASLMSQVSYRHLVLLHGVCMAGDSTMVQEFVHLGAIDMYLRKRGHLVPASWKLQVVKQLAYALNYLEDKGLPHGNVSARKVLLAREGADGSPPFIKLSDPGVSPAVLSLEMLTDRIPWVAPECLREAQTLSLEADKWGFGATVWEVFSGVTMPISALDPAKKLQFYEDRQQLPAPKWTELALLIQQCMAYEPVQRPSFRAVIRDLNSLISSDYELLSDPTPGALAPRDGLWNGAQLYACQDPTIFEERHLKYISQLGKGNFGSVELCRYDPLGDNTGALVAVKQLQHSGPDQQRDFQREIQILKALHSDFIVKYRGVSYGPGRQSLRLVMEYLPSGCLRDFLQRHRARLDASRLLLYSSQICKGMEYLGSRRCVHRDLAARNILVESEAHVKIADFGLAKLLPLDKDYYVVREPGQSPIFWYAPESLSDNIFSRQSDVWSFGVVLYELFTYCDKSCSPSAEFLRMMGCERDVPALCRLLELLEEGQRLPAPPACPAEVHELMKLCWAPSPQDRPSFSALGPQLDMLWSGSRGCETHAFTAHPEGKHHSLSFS
Protocol: as §1, §2, §3, §4, §5, §6

[4] = IL-2 stimulated YT cells, 0 min (no wash)

| SMILES | IC50 (JAK1) | IC50 (JAK2) | IC50 (Tyk2) | IC50 (JAK3) | also measured |
| --- | --- | --- | --- | --- | --- |
| COc1cc2ncnc(Nc3ccc(O)cc3)c2cc1OC [JANEX-1] |  |  |  |  | spontaneous autoimmune diabetes development [1]: prevent spontaneous autoimmune diabetes development; severity of GVHD (GVHD): attenuate the severity of GVHD |
| C[C@@H]1CCN(C(=O)CC#N)C[C@@H]1N(C)c1ncnc2[nH]ccc12 [Reference example 3, CP 690,550] |  |  |  |  | pSTAT5 inhibition pIC50, 0 min (no wash) [2, 4]: 7.6 and 7.8; pSTAT5 inhibition pIC50, 30 min after washout ([2]; IL-2 stimulated YT cells): 5.1; pSTAT5 inhibition pIC50, 1 hour after washout ([2]; IL-2 stimulated YT cells): inactive; pSTAT5 inhibition pIC50, 2 hours after washout ([2]; IL-2 stimulated YT cells): inactive; pSTAT5 inhibition pIC50, 4 hours after washout ([2]; IL-2 stimulated YT cells): Inactive; activity 30 minutes after the washing of cells ([2]; YT cells, 30 minutes after washing): significant drop in activity; inhibition activity 1 hour after washing ([2]; YT cells, 1 hour after washing): completely lost; efficacy in organ transplantation model [3]: show efficacy in an animal model of organ transplantation |
| C=CC(=O)Nc1cccc(Cn2ncc3cnc(Nc4ccn(C)n4)cc32)c1 [Example 8, N-(3-((6-((1-Methyl-1H-pyrazol-3-yl)amino)-1H-pyrazolo[4,3-c]pyridin-1-yl)methyl)phenyl)acrylamide] | > 10 µM | > 10 µM | > 10 µM | 0.005 µM |  |
| Cn1cc(Nc2ncc3cnn(Cc4cccc(NC5COC5)c4)c3n2)cn1 [Reference example 1, N-(1-methyl-1H-pyrazol-4-yl)-1-(3-(oxetan-3-ylamino)benzyl)-1H-pyrazolo[3,4-d]pyrimidin-6-amine] |  |  |  |  | IC50 ([2]; Homo sapiens, 0 h, IL-2 stimulated YT cells, 0 min (no wash), read-out: pSTAT5 inhibition pIC50, 0 min (no wash) (converted)): 1.58 µM; pSTAT5 inhibition pIC50, 0 min (no wash) [2, 4]: 5.7; pSTAT5 inhibition pIC50, 30 min after washout ([2]; IL-2 stimulated YT cells): inactive; pSTAT5 inhibition pIC50, 1 hour after washout ([2]; IL-2 stimulated YT cells): inactive; pSTAT5 inhibition pIC50, 2 hours after washout ([2]; IL-2 stimulated YT cells): inactive; pSTAT5 inhibition pIC50, 4 hours after washout ([2]; IL-2 stimulated YT cells): inactive |
| C=CC(=O)Nc1cccc(Cn2ncc3cnc(Nc4cnn(C)c4)cc32)c1 [Example 10, N-(3-((6-((1-Methyl-1H-pyrazol-4-yl)amino)-1H-pyrazolo[4,3-c]pyridin-1-yl)methyl)phenyl)acrylamide] | 5.37 µM | > 10 µM | 5.08 µM | 0.001 µM |  |
| CC(C)=CC(=O)Nc1cccc(Cn2ncc3cnc(Nc4cnn(C)c4)nc32)c1 [Example 6, 3-Methyl-N-(3-((6-((1-methyl-1H-pyrazol-4-yl)amino)-1H-pyrazolo[3,4-d]pyrimidin-1-yl)methyl)phenyl)but-2-enamide] | > 10 µM | > 10 µM | > 10 µM | 1.31 µM |  |
| C=CC(=O)Nc1cccc(Cn2ccc3cnc(Nc4cnn(C)c4)nc32)c1 [Example 9, N-(3-((2-((1-Methyl-1H-pyrazol-4-yl)amino)-7H-pyrrolo[2,3-d]pyrimidin-7-yl)methyl)phenyl)acrylamide] | 9.42 µM | > 10 µM | 8.08 µM | 0.003 µM |  |
